From ChEMBL document CHEMBL1127880, “1H-1,2,4-triazole angiotensin II receptor antagonists: N-phenylpyridinylmethyl and N-pyridinylphenylmethyl analogs of SC-50560” (Bioorg Med Chem Lett, 1994)

Tests used:
Oryctolagus cuniculus = organism: Oryctolagus cuniculus; assay: Evaluated for antagonism of AII contracted rabbit aortic rings; type: functional; conditions: Aorta, read-out: pA2 (converted)
Angiotensin II receptor = molecular target: T1, Angiotensin II receptor (Rattus norvegicus, UniProt P29089+P25095+P35351); assay: Tested in vitro for inhibition of [125I]AII to rat uterine membranes; type: cell membranes, Membrane
T1 sequence (P29089 whole entry): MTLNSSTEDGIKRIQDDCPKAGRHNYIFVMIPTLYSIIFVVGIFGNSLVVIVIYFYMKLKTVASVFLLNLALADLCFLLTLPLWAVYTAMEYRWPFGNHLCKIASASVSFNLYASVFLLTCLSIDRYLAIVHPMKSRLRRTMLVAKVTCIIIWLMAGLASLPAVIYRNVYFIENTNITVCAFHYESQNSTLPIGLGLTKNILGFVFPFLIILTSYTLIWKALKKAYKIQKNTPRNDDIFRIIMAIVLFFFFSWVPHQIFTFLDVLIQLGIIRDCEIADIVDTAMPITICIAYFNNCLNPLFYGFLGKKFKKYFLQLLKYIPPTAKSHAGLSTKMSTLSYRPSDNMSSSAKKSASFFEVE
T1 sequence (P25095 whole entry): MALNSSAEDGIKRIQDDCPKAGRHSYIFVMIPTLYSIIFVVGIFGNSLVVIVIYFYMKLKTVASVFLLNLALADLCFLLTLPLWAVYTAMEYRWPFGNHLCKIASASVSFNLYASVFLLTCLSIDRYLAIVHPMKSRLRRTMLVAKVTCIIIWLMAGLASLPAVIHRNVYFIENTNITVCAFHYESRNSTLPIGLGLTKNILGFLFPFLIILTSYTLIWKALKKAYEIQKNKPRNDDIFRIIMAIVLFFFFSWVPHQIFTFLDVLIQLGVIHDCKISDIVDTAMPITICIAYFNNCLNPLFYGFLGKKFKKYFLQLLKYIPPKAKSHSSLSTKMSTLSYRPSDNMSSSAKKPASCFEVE
T1 sequence (P35351 whole entry): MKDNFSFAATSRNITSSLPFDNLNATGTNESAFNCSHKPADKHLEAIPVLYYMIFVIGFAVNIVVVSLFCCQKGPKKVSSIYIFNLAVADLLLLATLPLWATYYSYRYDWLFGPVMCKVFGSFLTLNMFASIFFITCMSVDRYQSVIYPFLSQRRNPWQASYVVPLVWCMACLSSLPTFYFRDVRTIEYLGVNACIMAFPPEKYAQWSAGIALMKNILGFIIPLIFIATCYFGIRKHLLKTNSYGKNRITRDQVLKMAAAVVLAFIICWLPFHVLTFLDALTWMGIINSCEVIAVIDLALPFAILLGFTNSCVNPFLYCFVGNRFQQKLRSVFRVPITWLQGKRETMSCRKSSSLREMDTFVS

IC50 (Angiotensin II receptor) | SMILES | Kb (Oryctolagus cuniculus)
– | CCCCc1nc(CCCC)n(Cc2ccc(-c3ccccc3-c3nn[nH]n3)cn2)n1 | 10 nM
98 nM | CCCCc1nc(CCCC)n(Cc2ccc(-c3ncccc3-c3nn[nH]n3)cc2)n1 | 158 nM
150 nM | CCCCc1nc(CCCC)n(Cc2ccc(-c3cnccc3-c3nn[nH]n3)cc2)n1 | 63.1 nM
250 nM | CCCCc1nc(CCCC)n(Cc2ccc(-c3ccncc3-c3nn[nH]n3)cc2)n1 | –
110 nM | CCCCc1nc(CCCC)n(Cc2ccc(-c3cccnc3-c3nn[nH]n3)cc2)n1 | 126 nM
